Results from US5143925A, “Alteration of rate and character of hair growth” (priority 1991, dated 1992).

Assays:
[1] = system: flank organs of male intact Golden Syrian hamsters; experiment: Hamster flank organ hair growth (hair mass) after topical application; assay type: in vivo; settings: for Flank Organ Hair Mass, Treated: topical 10-25 μl once a day; for Flank Organ Hair Mass, Treated / % Inhibition of hair mass (+SEM): 18 days; for % Inhibition of hair mass (+SEM): treated organ vs vehicle-treated organ of same animal; for Hair shaft structure, microscopic examination: hair shafts harvested from flank organs
Method: A vehicle or carrier was prepared having the following composition:
The compound BBD was mixed with separate portions of the foregoing vehicle to provide specimens containing 1,2,5,10, and 20% by weight of the inhibitor respectively.
Five groups (seven or eight animals in each group) of male intact Golden Syrian hamsters were provided. These animals are considered acceptable models for human beard hair growth in that they display oval shaped flank organs, one on each side, each about 8 mm. in major diameter, which grow thick black and coarse hair similar to human beard hair. These organs produce hair in response to androgens in the hamster. The flank organs of each hamster were depilated by applying a thioglycolate-based chemical depilatory (Surgex), and to one organ of each animal was applied 10-25 μl. of vehicle alone once a day, while to the other organ of each animal was applied an equal amount of vehicle containing inhibitor. After 2 1/2 weeks of such applications (five days a week for a total of eighteen days), the flank organs were shaved and the amount of recovered hair (hair mass) from each was weighed. The extent of reduction in hair growth by the inhibitor was expressed as the percent decrease in hair mass on the organ treated with inhibitor as compared to the organ treated with vehicle alone. As a control, one additional control group of eight animals had both flank organs of each animal treated with vehicle alone.

[2] = system: transglutaminase; experiment: Inhibiting effect on transglutaminase activity; assay type: biochemical

## O=C(N[C@@H](Cc1ccccc1)C(=O)NCC1CC(Br)=NO1)OCc1ccccc1 (some centres unmarked) [BBD, 3-bromo-5-(N-benzyloxycarbonyl-1-phenylalanamido-methyl)-4,5-dihydroisoxazole]
[1]; 1% BBD in vehicle
  Flank Organ Hair Mass, Treated: 2.614 ± .19 mg ± SEM
[1]; 1% BBD
  % Inhibition of hair mass (+SEM): 19.54 ± 6.07%
[1]; 1-20% BBD, topical, hamster flank organ
  Length of the hair, visual inspection during treatment: decrease in the length of the hair dependent upon the concentration of the inhibitor
[1]; 2% BBD in vehicle
  Flank Organ Hair Mass, Treated: 2.827 ± .23 mg ± SEM
[1]; 2% BBD
  % Inhibition of hair mass (+SEM): -3.63 ± 9.91%
[1]; 5% BBD in vehicle
  Flank Organ Hair Mass, Treated: 2.279 ± .28 mg ± SEM
[1]; 5% BBD
  % Inhibition of hair mass (+SEM): 22.83 ± 9.62%
[1]; 5% and 10% concentrations of BBD
  Hair shaft structure, microscopic examination: less dramatic but visually obvious changes in the medulla of hair shafts
[1]; 10% BBD in vehicle
  Flank Organ Hair Mass, Treated: 1.389 ± .12 mg ± SEM
[1]; 10% BBD
  % Inhibition of hair mass (+SEM): 56.08 ± 4.64%
[1]; 20% BBD in vehicle
  Flank Organ Hair Mass, Treated: .333 ± .06 mg ± SEM
[1]; 20% BBD
  % Inhibition of hair mass (+SEM): 87.87 ± 1.54%
[1]; 20% concentration of BBD
  Hair shaft structure, microscopic examination: dramatic deterioration of the hair shaft structure including disorganization of the medulla and cuticle
[2]
  Inhibiting effect on transglutaminase activity: dose related
